From patent US6555576B1, “Method for treating exercise induced asthma” (SmithKline Beecham Corporation, priority 1999, dated 2003)

Legend:
[1] = target: T1, high affinity rolipram binding site of PDE 4 (HPDE 4); test: [3H]-rolipram binding assay (high affinity site); details: competition with 1 nM [3H]-rolipram, rat brain high speed supernatants, 1 hour at 30° C.
T1 construct: Rat brain high speed supernatants were used as a source of protein
Protocol: Rat brain high speed supernatants were used as a source of protein. […] The assay was run for 1hour at 30° C. The reaction was terminated and bound ligand was separated from free ligand using a Brandel cell harvester. Competition for the high affinity binding site was assessed under conditions that were identical to those used for measuring low affinity PDE activity, expect that [^3H]-cAMP was not present.

[2] = system: low affinity form of PDE 4 (LPDE 4); test: PDE 4 catalytic activity assay (low affinity form); type: biochemical, human; details: HPDE 4 IC50 divided by LPDE 4 IC50
Protocol: Consequently, inhibition of recombinant PDE 4 catalytic activity primarily reflects the actions of compounds at LPDE 4. Inhibition of PDE 4 catalytic activity can thus be used as an index of the potency of compounds at LPDE 4.
Isolated human monocyte PDE 4 and hrPDE 4 was determined to exist primarily in the low affinity form.

[3] = system: acid secretion; details: rats, particularly in combination with an activator of adenylate cyclase such as histamine; cited from earlier work
[4] = system: patients with EIA; test: Exercise challenge study in patients with EIA; type: in vivo, human
Protocol: A randomized, double-blind, placebo-controlled, two-period cross-over study was conducted to assess the efficacy, safety and tolerability of cis-[4-cyano-4-(3-cyclopentyloxy-4-methoxyphenyl)cyclohexan-1-carboxylate] in patients with EIA. 27 patients with EIA were randomized to receive the compound, 10 mg BID immediate release tablet or placebo, for 7 days followed by a 7 day washout and the alternate treatment for 7 days. Exercise challenge tests were performed after a single dose on day 1, and again on day 7 (pre-dose and three hours post-dose).
The patient population consisted of non-smoking men or women, ages 18 to 60 years with EIA such that:
a) their forced expiratory volume in one second (FEV1) was greater than or equal to 70% of predicted normal,
b) the documented fall in FEV1 was greater than or equal to 15% in response to exercise testing at a screening visit, and
c) they were not taking inhaled corticosteroids or other controller medications for asthma.
The Exercise Challenge Protocol was as follows. Patients were exercised on a motorized treadmill for six minutes at target heart rate. Speed and inclination were adjusted to achieve a target heart rate for each patient of 85% of age-adjusted maximum predicted. Patients breathed compressed air (0% humidity at room temperature) during the test through a face mask. Pulmonary function tests (KoKo pneumotach) were performed 1, 5, 10, 15, 20, 30 and 45 minutes after completion of the test and continued thereafter if FEV1 had not returned to within 10% of the baseline.
The primary efficacy variable was the maximum percentage decrease (MPD) in the FEV1 in response to exercise. The results indicated significant improvement in MPD FEV1 after one dose of the compound, from a mean MPD of 32.88% to 23.57%. There was an incremental effect of the compound after 7 days of dosing with further improvement in mean MPD FEV1 to 21.8%. […] See also, Am. J. Resp. Crit. Care Med. 1998:157; A413, incorporated herein in its entirety by reference.

[5] = human, in vivo; cited from earlier work

**Q.** For `COc1ccc(C2CN(Cc3ccc(N)cc3)C(=O)N2)cc1OC1CCCC1` (stereo not drawn) [1-(4-aminobenzyl)-4-(3-cyclopentyloxy-4-methoxyphenyl)-2-imidazolidinone], which IC50 [1] is on record?
**A.** 100 nM

**Q.** And the “High/Low Ratio (IC50 high affinity / IC50 low affinity)” value [2]?
**A.** 0.07

**Q.** Which “High/Low Ratio (IC50 high affinity / IC50 low affinity)” value [2] does the source give for `COc1ccc(C2CCC(c3nnn[nH]3)C2)cc1OC1CCCC1` (stereo not drawn) [1-(5-tetrazole)-3-(3-cyclopentyloxy-4-methoxyphenyl)cyclopentane] here?
**A.** 0.0018

**Q.** For `COc1ccc(C2CCN(Cc3ccc(NC(=NC#N)SC)cc3)C2=O)cc1OC1CCCC1` (stereo not drawn) [3-(cyclopentyl-oxy-4-methoxyphenyl)-1-(4-N′-[N2-cyano-S-methyl-isothioureido]benzyl)-2-pyrrolidone], which “High/Low Ratio (IC50 high affinity / IC50 low affinity)” value [2] is on record?
**A.** 0.30

**Q.** With `CCOC(=O)C=C1C[C@H](c2ccc(OC)c(OC3CCCC3)c2)CN1` [(R)-(+)-ethyl [4-(3-cyclopentyloxy-4-methoxyphenyl)pyrrolidine-2-ylidene]acetate] as the compound, how does the “High/Low Ratio (IC50 high affinity / IC50 low affinity)” value [2] read?
**A.** 2.143

**Q.** For `CCOC(=O)C=C1C[C@@H](c2ccc(OC)c(OC3CCCC3)c2)CN1` [(S)-(−)-ethyl [4-(3-cyclopentyloxy-4-methoxyphenyl)pyrrolidine-2-ylidene]acetate], which “High/Low Ratio (IC50 high affinity / IC50 low affinity)” value [2] is on record?
**A.** .98

**Q.** For `CC(C)Cn1c(=O)n(C)c(=O)c2[nH]cnc21` [IBMX, reference compound], which “High/Low Ratio (IC50 high affinity / IC50 low affinity)” value [2] is on record?
**A.** 0.698

**Q.** Which results are given for `NC(=O)C(=O)NCCc1ccc(OC(F)F)c(OC(F)F)c1` [N-[2-(3,4-bisdifluoromethoxy-phenyl)ethyl]oxamide]?
**A.** IC50 [1]: 400 nM; High/Low Ratio (IC50 high affinity / IC50 low affinity) [2]: 0.25

**Q.** For `COc1ccc(CCNC(=O)C(N)=O)cc1OC1CCCC1` [N-[2-(3-cyclopentyloxy-4-methoxyphenyl)ethyl]oxamide], which “High/Low Ratio (IC50 high affinity / IC50 low affinity)” value [2] is on record?
**A.** 0.013

**Q.** With `CCCCOc1cc(CC2CNC(=O)N2)ccc1OC` (stereo not drawn) [Ro 20-1724, reference compound] as the compound, how does the IC50 [1] read?
**A.** 190 nM

**Q.** And the “effect on acid secretion” value [3]?
**A.** enhance acid secretion

**Q.** With `COc1ccc(C2(C#N)CCC(C(=O)O)CC2)cc1OC1CCCC1` (stereo not drawn) [cis-[4-cyano-4-(3-cyclopentyloxy-4-methoxyphenyl)cyclohexan-1-carboxylate]] as the compound, how does the safety and tolerability ([4]; 10 mg BID for 7 days, patients with EIA) read?
**A.** safe and well tolerated, with no treatment-related serious adverse experiences or withdrawals

**Q.** What about the “effects in humans suffering from EIA” value ([4]; administered to humans suffering from EIA) of the same compound?
**A.** reduced inflammation, bronchodilation and pulmonary neuromodulation

**Q.** What about the “mean maximum percentage decrease (MPD) in FEV1 in response to exercise” value ([4]; after 7 days of dosing, 10 mg BID) of the same compound?
**A.** 21.8%

**Q.** And the “mean maximum percentage decrease (MPD) in FEV1 in response to exercise” value ([4]; after one dose, 10 mg immediate release tablet, improved from mean MPD of 32.88%)?
**A.** 23.57%

**Q.** What about the “patients with a fall in FEV1 of less than or equal to 15% after exercise” value ([4]; after one week of treatment, 10 mg BID) of the same compound?
**A.** 40%

**Q.** Which “side effects in clinical studies” value [5] does the source give for `CCCCn1c(=O)c2c(ncn2CC(C)=O)n(CCCC)c1=O` [denbufylline, 7-acetonyl, 1,3-dibutyixanthine] here?
**A.** may include pyrosis, nausea and emesis

**Q.** For `OCCN(CCO)c1nc(N2CCCCC2)c2nc(N(CCO)CCO)nc(N3CCCCC3)c2n1` [dipyridamole, 2,2′,2″,2′-[(4,8-dipiperldinopyrimido[5,4-d]pyrmidine-2-6-diyl)dinitrilo]tetraethanol, reference compound], which “High/Low Ratio (IC50 high affinity / IC50 low affinity)” value [2] is on record?
**A.** 6.25

**Q.** With `COc1ccc(C2CNC(=O)C2)cc1OC1CCCC1` (stereo not drawn) [rolipram] as the compound, how does the “side effects in clinical studies” value [5] read?
**A.** has psychotropic activity and produces gastrointestinal effects, e.g., pyrosis, nausea and emesis

**Q.** What about the “effect on acid secretion” value [3] of the same compound?
**A.** enhance acid secretion
